{
  "source": "patent US20020035061A1",
  "about": "“COMPOSITIONS AND METHODS FOR TREATING INFECTIONS USING CATIONIC PEPTIDES ALONE OR IN COMBINATION WITH ANTIBIOTICS” (priority 1996, published 2002)",
  "format_in_all_cases": "cell-based",
  "key": {"E. faecalis": {"tested_on": "E. faecalis", "settings": "E. faecalis strain EFS002"}, "H. influenzae": {"tested_on": "H. influenzae", "test": "Agarose dilution assay (MIC)"}, "S. marcescens": {"tested_on": "S. marcescens"}, "[1]": {"tested_on": "inherently resistant microorganisms", "test": "microbe, parasite or virus in culture", "settings": "S. aureus MRSA"}, "A. calcoaceticus": {"tested_on": "A. calcoaceticus", "settings": "A. calcoaceticus strain AC001"}, "S. aureus": {"tested_on": "S. aureus", "settings": "S. aureus strain SA012"}, "S. maltophilia": {"tested_on": "S. maltophilia", "settings": "S. maltophilia strain SMA001"}, "S. pneumoniae": {"tested_on": "S. pneumoniae", "test": "Agarose dilution assay (MIC)"}, "P. aeruginosa": {"tested_on": "P. aeruginosa", "settings": "P. aeruginosa strain PA006"}, "K. pneumoniae": {"tested_on": "K. pneumoniae", "settings": "K. pneumoniae strain KP001"}, "E. faecium": {"tested_on": "E. faecium", "settings": "E. faecium strain EFM001"}, "E. coli": {"tested_on": "E. coli", "settings": "E. coli strain ECO005"}, "[2]": {"tested_on": "microorganisms with acquired resistance", "test": "microbe, parasite or virus in culture", "settings": "for Peptide MIC Alone: Piperacillin section; for FIC: peptide + Piperacillin"}, "bacterial isolates": {"tested_on": "bacterial isolates", "test": "microbe, parasite or virus in culture", "settings": "for Peptide MIC Alone: Piperacillin section; for FIC: peptide + Piperacillin"}, "S. pyogenes": {"tested_on": "S. pyogenes", "test": "Agarose dilution assay (MIC)", "settings": "S. pyogenes strain SPY006"}, "E. cloacae": {"tested_on": "E. cloacae", "settings": "E. cloacae strain ECL006"}, "S. epidermidis": {"tested_on": "S. epidermidis", "settings": "S. epidermidis strain SE002"}},
  "note": "Read-outs that look alike come from different tables or passages of the source.",
  "data": [
    {"sequence": "ILKKWPWWPWRR [MBI 11G7CN]", "values": [
      {"measurement": "MIC", "setting": "E. faecalis", "value": 32, "unit": "µg/mL"},
      {"measurement": "MIC", "setting": "H. influenzae; H. influenzae strain HIN002", "value": ">128", "unit": "µg/mL"},
      {"measurement": "MIC", "setting": "H. influenzae; H. influenzae strain SBHIN2", "value": ">128", "unit": "µg/mL"},
      {"measurement": "MIC", "setting": "S. marcescens; S. marcescens strain SBSM1", "value": ">128", "unit": "µg/mL"},
      {"measurement": "MIC", "setting": "S. marcescens; S. marcescens strain SMS003", "value": ">128", "unit": "µg/mL"},
      {"measurement": "Peptide MIC + Piperacillin", "setting": "[1]", "value": 2, "unit": "µg/mL"},
      {"measurement": "Peptide MIC Alone", "setting": "[1]; Piperacillin section", "value": 8, "unit": "µg/mL"},
      {"measurement": "FIC", "setting": "[1]; peptide + Piperacillin", "value": 0.25},
      {"measurement": "MIC", "setting": "A. calcoaceticus", "value": 128, "unit": "µg/mL"},
      {"measurement": "MIC", "setting": "S. aureus", "value": 2, "unit": "µg/mL"},
      {"measurement": "MIC", "setting": "S. maltophilia", "value": 32, "unit": "µg/mL"},
      {"measurement": "MIC", "setting": "S. pneumoniae; S. pneumoniae strain SBSPN2", "value": ">128", "unit": "µg/mL"},
      {"measurement": "MIC", "setting": "S. pneumoniae; S. pneumoniae strain SPN044", "value": ">128", "unit": "µg/mL"},
      {"measurement": "MIC", "setting": "P. aeruginosa", "value": ">128", "unit": "µg/mL"},
      {"measurement": "MIC", "setting": "K. pneumoniae", "value": 16, "unit": "µg/mL"},
      {"measurement": "MIC", "setting": "E. faecium", "value": 8, "unit": "µg/mL"},
      {"measurement": "MIC", "setting": "E. coli", "value": 8, "unit": "µg/mL"},
      {"measurement": "Peptide MIC + Piperacillin", "setting": "[2]; A. calcoaceticus 3", "value": 32, "unit": "µg/mL"},
      {"measurement": "Piperacillin MIC + Peptide", "setting": "[2]; A. calcoaceticus 3", "value": 16, "unit": "µg/mL"},
      {"measurement": "Peptide MIC Alone", "setting": "[2]; A. calcoaceticus 3", "value": 64, "unit": "µg/mL"},
      {"measurement": "Peptide MIC + Piperacillin", "setting": "[2]; H. influenzae 1", "value": 64, "unit": "µg/mL"},
      {"measurement": "Piperacillin MIC + Peptide", "setting": "[2]; H. influenzae 1", "value": 16, "unit": "µg/mL"},
      {"measurement": "Peptide MIC Alone", "setting": "[2]; H. influenzae 1", "value": ">128", "unit": "µg/mL"},
      {"measurement": "Peptide MIC + Piperacillin", "setting": "[2]; P. aeruginosa 7", "value": 64, "unit": "µg/mL"},
      {"measurement": "Piperacillin MIC + Peptide", "setting": "[2]; P. aeruginosa 7", "value": 64, "unit": "µg/mL"},
      {"measurement": "Peptide MIC Alone", "setting": "[2]; P. aeruginosa 7", "value": ">128", "unit": "µg/mL"},
      {"measurement": "Peptide MIC + Piperacillin", "setting": "[2]; P. aeruginosa 23", "value": 1, "unit": "µg/mL"},
      {"measurement": "Piperacillin MIC + Peptide", "setting": "[2]; P. aeruginosa 23", "value": 64, "unit": "µg/mL"},
      {"measurement": "Peptide MIC Alone", "setting": "[2]; P. aeruginosa 23", "value": ">128", "unit": "µg/mL"},
      {"measurement": "Peptide MIC + Piperacillin", "setting": "[2]; S. maltophilia 2", "value": 16, "unit": "µg/mL"},
      {"measurement": "Piperacillin MIC + Peptide", "setting": "[2]; S. maltophilia 2", "value": 16, "unit": "µg/mL"},
      {"measurement": "Peptide MIC Alone", "setting": "[2]; S. maltophilia 2", "value": 64, "unit": "µg/mL"},
      {"measurement": "Peptide MIC + Piperacillin", "setting": "[2]; S. marcescens 1", "value": 1, "unit": "µg/mL"},
      {"measurement": "Piperacillin MIC + Peptide", "setting": "[2]; S. marcescens 1", "value": 16, "unit": "µg/mL"},
      {"measurement": "Peptide MIC Alone", "setting": "[2]; S. marcescens 1", "value": ">128", "unit": "µg/mL"},
      {"measurement": "FIC", "setting": "[2]; A. calcoaceticus 3", "value": 0.63},
      {"measurement": "FIC", "setting": "[2]; H. influenzae 1", "value": 0.75},
      {"measurement": "FIC", "setting": "[2]; P. aeruginosa 7", "value": 0.50},
      {"measurement": "FIC", "setting": "[2]; P. aeruginosa 23", "value": 0.50},
      {"measurement": "FIC", "setting": "[2]; S. maltophilia 2", "value": 0.75},
      {"measurement": "FIC", "setting": "[2]; S. marcescens 1", "value": 0.25},
      {"measurement": "Peptide MIC + Piperacillin", "setting": "bacterial isolates; A. calcoaceticus 3", "value": 16, "unit": "µg/mL"},
      {"measurement": "Piperacillin MIC + Peptide", "setting": "bacterial isolates; A. calcoaceticus 3", "value": 32, "unit": "µg/mL"},
      {"measurement": "Peptide MIC Alone", "setting": "bacterial isolates; A. calcoaceticus 3", "value": 64, "unit": "µg/mL"},
      {"measurement": "Peptide MIC + Piperacillin", "setting": "bacterial isolates; H. influenzae SB1", "value": 4, "unit": "µg/mL"},
      {"measurement": "Piperacillin MIC + Peptide", "setting": "bacterial isolates; H. influenzae SB1", "value": 0.25, "unit": "µg/mL"},
      {"measurement": "Peptide MIC Alone", "setting": "bacterial isolates; H. influenzae SB1", "value": ">128", "unit": "µg/mL"},
      {"measurement": "Peptide MIC + Piperacillin", "setting": "bacterial isolates; P. aeruginosa 7", "value": 64, "unit": "µg/mL"},
      {"measurement": "Piperacillin MIC + Peptide", "setting": "bacterial isolates; P. aeruginosa 7", "value": 64, "unit": "µg/mL"},
      {"measurement": "Peptide MIC Alone", "setting": "bacterial isolates; P. aeruginosa 7", "value": ">128", "unit": "µg/mL"},
      {"measurement": "Peptide MIC + Piperacillin", "setting": "bacterial isolates; P. aeruginosa 23", "value": 1, "unit": "µg/mL"},
      {"measurement": "Piperacillin MIC + Peptide", "setting": "bacterial isolates; P. aeruginosa 23", "value": 64, "unit": "µg/mL"},
      {"measurement": "Peptide MIC Alone", "setting": "bacterial isolates; P. aeruginosa 23", "value": ">128", "unit": "µg/mL"},
      {"measurement": "Peptide MIC + Piperacillin", "setting": "bacterial isolates; S. aureus 18 MRSA", "value": 8, "unit": "µg/mL"},
      {"measurement": "Piperacillin MIC + Peptide", "setting": "bacterial isolates; S. aureus 18 MRSA", "value": 64, "unit": "µg/mL"},
      {"measurement": "Peptide MIC Alone", "setting": "bacterial isolates; S. aureus 18 MRSA", "value": 32, "unit": "µg/mL"},
      {"measurement": "Peptide MIC + Piperacillin", "setting": "bacterial isolates; S. aureus 19 MRSA", "value": 0.5, "unit": "µg/mL"},
      {"measurement": "Piperacillin MIC + Peptide", "setting": "bacterial isolates; S. aureus 19 MRSA", "value": 64, "unit": "µg/mL"},
      {"measurement": "Peptide MIC Alone", "setting": "bacterial isolates; S. aureus 19 MRSA", "value": 8, "unit": "µg/mL"},
      {"measurement": "Peptide MIC + Piperacillin", "setting": "bacterial isolates; S. marcescens 1", "value": 1, "unit": "µg/mL"},
      {"measurement": "Piperacillin MIC + Peptide", "setting": "bacterial isolates; S. marcescens 1", "value": 16, "unit": "µg/mL"},
      {"measurement": "Peptide MIC Alone", "setting": "bacterial isolates; S. marcescens 1", "value": ">128", "unit": "µg/mL"},
      {"measurement": "FIC", "setting": "bacterial isolates; A. calcoaceticus 3", "value": 0.50},
      {"measurement": "FIC", "setting": "bacterial isolates; H. influenzae SB1", "value": 0.52},
      {"measurement": "FIC", "setting": "bacterial isolates; P. aeruginosa 7", "value": 0.50},
      {"measurement": "FIC", "setting": "bacterial isolates; P. aeruginosa 23", "value": 0.50},
      {"measurement": "FIC", "setting": "bacterial isolates; S. aureus 18 MRSA", "value": 0.50},
      {"measurement": "FIC", "setting": "bacterial isolates; S. aureus 19 MRSA", "value": 0.56},
      {"measurement": "FIC", "setting": "bacterial isolates; S. marcescens 1", "value": 0.25},
      {"measurement": "MIC", "setting": "S. pyogenes", "value": 16, "unit": "µg/mL"},
      {"measurement": "MIC", "setting": "E. cloacae", "value": 64, "unit": "µg/mL"},
      {"measurement": "MIC", "setting": "S. epidermidis", "value": 2, "unit": "µg/mL"}
    ]}
  ]
}
